Data taken from ChEMBL document CHEMBL1124833, “Topically active carbonic anhydrase inhibitors. 3. Benzofuran- and indole-2-sulfonamides” (J Med Chem, 1990).
In brackets after ≈: the same amount, converted by molar mass.

What was measured:
Oryctolagus cuniculus [1] = test: METD(minimum effective topical dose of the compound) for ocular hypotensive activity in alpha-CT-rabbits; format: functional, Eye
[2] = Extent of reaction with 20 equiv of reduced glutathione (GSH) in 20 hours at pH 7.4 and 37 degree C
Carbonic anhydrase 2 = Carbonic anhydrase 2 (Homo sapiens, UniProt P00918)
Description: In vitro inhibition of human carbonic anhydrase II (0.1 nM).

[3] = Solubility; format: physicochemical; settings: read-out: S
Oryctolagus cuniculus [4] = test: In vivo intraocular pressure reduction was determined in rabbits after effective topical dose (duration expressed as number of time points, P<=0.05); format: functional, Eye
[5] = Extent of reaction with 5 equiv of reduced glutathione (GSH) between 16 and 22 hours at pH 7.4 and 37 degree C
Cavia porcellus [6] = species: Cavia porcellus; test: Number of animals showing dermal sensitization/ number of animals tested in Magnusson-Kligman assay; 15/40; format: functional
Cavia porcellus [7] = species: Cavia porcellus; test: Number of animals showing dermal sensitization/ number of animals tested in Magnusson-Kligman assay.; format: functional
Cavia porcellus [8] = species: Cavia porcellus; test: Number of animals showing dermal sensitization/ number of animals tested in Magnusson-Kligman assay; 8/19; format: functional

Structure (SMILES) | GSH [2] [%] | IC50 (Carbonic anhydrase 2) [nM] | solubility [3] [µg/mL] | GSH [5] [%] | METD (Oryctolagus cuniculus [1]) [%] | Max IOP reduction (Oryctolagus cuniculus [4]) [mmHg] | No. of animals (Cavia porcellus [6]) | No. of animals (Cavia porcellus [7]) | No. of animals (Cavia porcellus [8])
NS(=O)(=O)c1cc2cc(O)ccc2o1 | 9 | 6.5 | 2100 (≈ 9850 µM) | 4 | 0.1 | -6 | 15 | – | –
Nc1ccc2oc(S(N)(=O)=O)cc2c1 | – | 9 | 280 (≈ 1320 µM) | 11 | 0.5 | -6 | – | – | –
COc1ccc2cc(S(N)(=O)=O)n(C)c2c1 | 37 | 110 | 40 (≈ 166 µM) | – | – | – | – | – | –
CC(=O)Oc1ccc2oc(S(N)(=O)=O)cc2c1 | – | 6.5 | 190 (≈ 744 µM) | – | – | -5.7 | – | – | –
CC(=O)Oc1ccc2cc(S(N)(=O)=O)oc2c1 | – | 5.5 | – | – | 0.5 | -8.8 | – | – | –
COc1ccc2cc(S(N)(=O)=O)n(S(=O)(=O)c3ccccc3)c2c1 | – | > 10000 | – | – | – | – | – | – | –
COc1ccc2cc(S(N)(=O)=O)oc2c1 | – | 15 | – | – | – | – | – | – | –
CC(=O)Oc1ccc2cc(S(N)(=O)=O)sc2c1 | – | – | – | – | 0.1 | -5.3 | – | – | –
CC(C)(C)C(=O)Oc1ccc2cc(S(N)(=O)=O)oc2c1 | – | – | – | – | 0.5 | -5.3 | – | – | –
COc1ccc2oc(S(N)(=O)=O)cc2c1 | 10 | 5.1 | 540 (≈ 2380 µM) | – | – | – | – | – | –
NS(=O)(=O)c1cc2ccccc2o1 | 10 | 8 | 480 (≈ 2430 µM) | 0 | – | – | – | – | –
Cc1c(S(N)(=O)=O)oc2cc(O)ccc12 | 47 | 210 | – | – | – | – | – | – | –
NS(=O)(=O)c1cc2ccc(O)cc2s1 | 2.9 | – | 430 (≈ 1880 µM) | 0 | 0.05 | -5.5 | – | 0 | –
CC(C)(C)C(=O)Oc1ccc2oc(S(N)(=O)=O)cc2c1 | – | 3 | – | 3.4 | – | – | – | – | –
Nc1ccc2cc(S(N)(=O)=O)oc2c1 | 17 | 25 | 80 (≈ 377 µM) | 11 | – | – | – | – | –
NS(=O)(=O)c1cc2cc3c(cc2[nH]1)OCO3 | – | 25 | 50 (≈ 208 µM) | – | – | – | – | – | –

Further lines, with some results ahead:

GSH [2] [%] | IC50 (Carbonic anhydrase 2) [nM] | solubility [3] [µg/mL] | GSH [5] [%] | Structure (SMILES) | METD (Oryctolagus cuniculus [1]) [%] | Max IOP reduction (Oryctolagus cuniculus [4]) [mmHg] | No. of animals (Cavia porcellus [6]) | No. of animals (Cavia porcellus [7]) | No. of animals (Cavia porcellus [8])
17 | 30 | 4800 (≈ 22600 µM) | 2.5 | NS(=O)(=O)c1cc2ccc(O)cc2[nH]1 | 0.5 | -5 | – | – | –
– | 16 | 150 (≈ 663 µM) | – | COc1ccc2[nH]c(S(N)(=O)=O)cc2c1 | – | – | – | – | –
13 | 22 | 1900 (≈ 8950 µM) | 0.7 | NS(=O)(=O)c1cc2cc(O)ccc2[nH]1 | 0.1 | -7.5 | – | 19 | –
– | 32 | – | – | CC(=O)Oc1ccc2cc(S(N)(=O)=O)[nH]c2c1 | – | – | – | – | –
– | 11 | 220 (≈ 865 µM) | – | CC(=O)Oc1ccc2[nH]c(S(N)(=O)=O)cc2c1 | – | – | – | – | –
23 | 11 | 2800 (≈ 13100 µM) | 4.9 | NS(=O)(=O)c1cc2ccc(O)cc2o1 | 0.5 | -5.2 | – | – | 8
– | 45 | 850 (≈ 4330 µM) | 0 | NS(=O)(=O)c1cc2ccccc2[nH]1 | – | – | – | – | –
– | 60 | 520 (≈ 2300 µM) | – | COc1ccc2cc(S(N)(=O)=O)[nH]c2c1 | – | – | – | – | –
